Experiments:
Assay type in all cases: cell-based
[1] = test system: HeLa (Human cervical carcinoma); assay: in vitro culture cell number, HeLa
From the text: (§1) Substances having the structures of the synthesised target material when added to in vitro cultures of various cancer cell lines produced a dose-related cell death as indicated in the Tables below.

[2] = test system: WiDr (Human colon adenocarcinoma); assay: in vitro culture cell number, WiDr
From the text: as §1

[3] = test system: CaSki (Human cervical epidermoid carcinoma); assay: in vitro culture cell number, CaSki
From the text: as §1

[4] = test system: PC3 (Human prostate adenocarcinoma); assay: in vitro culture cell number, PC3
From the text: as §1

[5] = test system: MOLT4 (Human Tcell leukaemia); assay: in vitro culture cell number, MOLT4
From the text: as §1

[6] = test system: WIL2 (Human B lymphoblastoma); assay: in vitro culture cell number, WIL2
From the text: as §1

[7] = test system: G361 (Human malignant melanoma); assay: in vitro culture cell number, G361
From the text: as §1

[8] = test system: PA-1 (Human ovarian teratocarcinoma); assay: in vitro culture cell number, PA-1
From the text: as §1

[9] = test system: KHOS/NP (Human osteocarcinoma); assay: in vitro culture cell number, KHOS/NP
From the text: as §1

[10] = Homo sapiens, 2.0 μg/ml, P < 0.001, read-out: Cell No (% Control)
[11] = Homo sapiens, 5.0 μg/ml, P < 0.001, read-out: Cell No (% Control)
[12] = Homo sapiens, 7.5 μg/ml, P < 0.001, read-out: Cell No (% Control)
[13] = Homo sapiens, 10.0 μg/ml, P < 0.001, read-out: Cell No (% Control)
[14] = Homo sapiens, 20.0 μg/ml, P < 0.001, read-out: Cell No (% Control)

## O=CCC1OCCC1=O (racemic) [Compound 8, (3-ketotetrahydrofuran-2-yl)ethanal]
[1]; 0.5 μg/ml
  Cell No: 12165
[1]; 1.0 μg/ml
  Cell No: 10932
[1]; 1.5 μg/ml
  Cell No: 7453
[1]; 2.0 μg/ml
  Cell No: 4675
[1]; 5.0 μg/ml
  Cell No: 201
[1]; Homo sapiens, 0.5 μg/ml, P < 0.001, read-out: Cell No (% Control)
  activity at 0.5 µg/mL: 83.9%
[1]; Homo sapiens, 1.0 μg/ml, P < 0.001, read-out: Cell No (% Control)
  activity at 1 µg/mL: 75.4%
[1]; Homo sapiens, 1.5 μg/ml, P < 0.001, read-out: Cell No (% Control)
  activity at 1.5 µg/mL: 51.4%
[1]; [10]
  activity at 2 µg/mL: 32.2%
[1]; [11]
  activity at 5 µg/mL: 1.4%
[2]; 2.0 μg/ml
  Cell No: 5845
[2]; 5.0 μg/ml
  Cell No: 5762
[2]; 7.5 μg/ml
  Cell No: 5097
[2]; 10.0 μg/ml
  Cell No: 3826
[2]; 20.0 μg/ml
  Cell No: 178
[2]; Homo sapiens, 2.0 μg/ml, P < 0.05, read-out: Cell No (% Control)
  activity at 2 µg/mL: 90.9%
[2]; Homo sapiens, 5.0 μg/ml, P < 0.05, read-out: Cell No (% Control)
  activity at 5 µg/mL: 89.6%
[2]; [12]
  activity at 7.5 µg/mL: 79.3%
[2]; [13]
  activity at 10 µg/mL: 59.5%
[2]; [14]
  activity at 20 µg/mL: 2.8%
[3]; 2.0 μg/ml
  Cell No: 4401
[3]; 5.0 μg/ml
  Cell No: 4617
[3]; 7.5 μg/ml
  Cell No: 3495
[3]; 10.0 μg/ml
  Cell No: 2800
[3]; 20.0 μg/ml
  Cell No: 234
[3]; Homo sapiens, Ca-Ski, 2.0 μg/ml, P < 0.001, read-out: Cell No (% Control)
  activity at 2 µg/mL: 89.1%
[3]; Homo sapiens, Ca-Ski, 5.0 μg/ml, read-out: Cell No (% Control)
  activity at 5 µg/mL: 93.5%
[3]; Homo sapiens, Ca-Ski, 7.5 μg/ml, P < 0.001, read-out: Cell No (% Control)
  activity at 7.5 µg/mL: 70.8%
[3]; Homo sapiens, Ca-Ski, 10.0 μg/ml, P < 0.001, read-out: Cell No (% Control)
  activity at 10 µg/mL: 56.7%
[3]; Homo sapiens, Ca-Ski, 20.0 μg/ml, P < 0.001, read-out: Cell No (% Control)
  activity at 20 µg/mL: 4.7%
[4]; Homo sapiens, PC-3, PC3, 2.0 μg/ml, P < 0.05, read-out: Cell No (% Control)
  activity at 2 µg/mL: 87.9%
[4]; Homo sapiens, PC-3, PC3, 5.0 μg/ml, P < 0.001, read-out: Cell No (% Control)
  activity at 5 µg/mL: 67.4%
[4]; Homo sapiens, PC-3, PC3, 7.5 μg/ml, P < 0.001, read-out: Cell No (% Control)
  activity at 7.5 µg/mL: 32.9%
[4]; Homo sapiens, PC-3, PC3, 10.0 μg/ml, P < 0.001, read-out: Cell No (% Control)
  activity at 10 µg/mL: 9.3%
[4]; Homo sapiens, PC-3, PC3, 20.0 μg/ml, P < 0.001, read-out: Cell No (% Control)
  activity at 20 µg/mL: 5.9%
[4]; PC3, 2.0 μg/ml
  Cell No: 5908
[4]; PC3, 5.0 μg/ml
  Cell No: 4532
[4]; PC3, 7.5 μg/ml
  Cell No: 2211
[4]; PC3, 10.0 μg/ml
  Cell No: 627
[4]; PC3, 20.0 μg/ml
  Cell No: 399
[5]; Homo sapiens, MOLT-4, MOLT4, 0.5 μg/ml, P < 0.001, read-out: Cell No (% Control)
  activity at 0.5 µg/mL: 91.2%
[5]; Homo sapiens, MOLT-4, MOLT4, 1.0 μg/ml, P < 0.001, read-out: Cell No (% Control)
  activity at 1 µg/mL: 78.8%
[5]; Homo sapiens, MOLT-4, MOLT4, 1.5 μg/ml, P < 0.001, read-out: Cell No (% Control)
  activity at 1.5 µg/mL: 53.7%
[5]; Homo sapiens, MOLT-4, MOLT4, 2.0 μg/ml, P < 0.001, read-out: Cell No (% Control)
  activity at 2 µg/mL: 34.2%
[5]; Homo sapiens, MOLT-4, MOLT4, 5.0 μg/ml, P < 0.001, read-out: Cell No (% Control)
  activity at 5 µg/mL: 12.4%
[5]; MOLT4, 0.5 μg/ml
  Cell No: 4543
[5]; MOLT4, 1.0 μg/ml
  Cell No: 3920
[5]; MOLT4, 1.5 μg/ml
  Cell No: 2674
[5]; MOLT4, 2.0 μg/ml
  Cell No: 1701
[5]; MOLT4, 5.0 μg/ml
  Cell No: 619
[6]; Homo sapiens, WIL2, 0.5 μg/ml, P < 0.001, read-out: Cell No (% Control)
  activity at 0.5 µg/mL: 85.3%
[6]; Homo sapiens, WIL2, 1.0 μg/ml, P < 0.001, read-out: Cell No (% Control)
  activity at 1 µg/mL: 58.8%
[6]; Homo sapiens, WIL2, 1.5 μg/ml, P < 0.001, read-out: Cell No (% Control)
  activity at 1.5 µg/mL: 24.9%
[6]; Homo sapiens, WIL2, 2.0 μg/ml, P < 0.001, read-out: Cell No (% Control)
  activity at 2 µg/mL: 16.1%
[6]; Homo sapiens, WIL2, 5.0 μg/ml, P < 0.001, read-out: Cell No (% Control)
  activity at 5 µg/mL: 7.1%
[6]; WIL2, 0.5 μg/ml
  Cell No: 8431
[6]; WIL2, 1.0 μg/ml
  Cell No: 5810
[6]; WIL2, 1.5 μg/ml
  Cell No: 2459
[6]; WIL2, 2.0 μg/ml
  Cell No: 1591
[6]; WIL2, 5.0 μg/ml
  Cell No: 705
[7]; G361, 2.0 μg/ml
  Cell No: 1679
[7]; G361, 5.0 μg/ml
  Cell No: 314
[7]; G361, 7.5 μg/ml
  Cell No: 159
[7]; G361, 10.0 μg/ml
  Cell No: 142
[7]; G361, 20.0 μg/ml
  Cell No: 230
[7]; Homo sapiens, G-361, G361, 2.0 μg/ml, P < 0.001, read-out: Cell No (% Control)
  activity at 2 µg/mL: 35.8%
[7]; Homo sapiens, G-361, G361, 5.0 μg/ml, P < 0.001, read-out: Cell No (% Control)
  activity at 5 µg/mL: 6.7%
[7]; Homo sapiens, G-361, G361, 7.5 μg/ml, P < 0.001, read-out: Cell No (% Control)
  activity at 7.5 µg/mL: 3.4%
[7]; Homo sapiens, G-361, G361, 10.0 μg/ml, P < 0.001, read-out: Cell No (% Control)
  activity at 10 µg/mL: 3%
[7]; Homo sapiens, G-361, G361, 20.0 μg/ml, P < 0.001, read-out: Cell No (% Control)
  activity at 20 µg/mL: 4.9%
[8]; Homo sapiens, PA-1, 0.5 μg/ml, P < 0.001, read-out: Cell No (% Control)
  activity at 0.5 µg/mL: 84.3%
[8]; Homo sapiens, PA-1, 1.0 μg/ml, P < 0.001, read-out: Cell No (% Control)
  activity at 1 µg/mL: 84.9%
[8]; Homo sapiens, PA-1, 1.5 μg/ml, P < 0.001, read-out: Cell No (% Control)
  activity at 1.5 µg/mL: 77.3%
[8]; Homo sapiens, PA-1, 2.0 μg/ml, P < 0.001, read-out: Cell No (% Control)
  activity at 2 µg/mL: 72.4%
[8]; Homo sapiens, PA-1, 5.0 μg/ml, P < 0.001, read-out: Cell No (% Control)
  activity at 5 µg/mL: 20.9%
[8]; PA-1, 0.5 μg/ml
  Cell No: 11346
[8]; PA-1, 1.0 μg/ml
  Cell No: 11276
[8]; PA-1, 1.5 μg/ml
  Cell No: 10338
[8]; PA-1, 2.0 μg/ml
  Cell No: 9678
[8]; PA-1, 5.0 μg/ml
  Cell No: 2729
[9]; 2.0 μg/ml
  Cell No: 9442
[9]; 5.0 μg/ml
  Cell No: 6356
[9]; 7.5 μg/ml
  Cell No: 2469
[9]; 10.0 μg/ml
  Cell No: 862
[9]; 20.0 μg/ml
  Cell No: 380
[9]; [10]
  activity at 2 µg/mL: 84.5%
[9]; [11]
  activity at 5 µg/mL: 56.9%
[9]; [12]
  activity at 7.5 µg/mL: 22.1%
[9]; [13]
  activity at 10 µg/mL: 7.7%
[9]; [14]
  activity at 20 µg/mL: 3.4%

Reference: patent publication US5684166A, “(-3-ketotetrahydrofuran-2-yl) ethanal derivatives and a method for their preparation” (Biocure Limited, priority 1993, dated 1997)
